Data taken from ChEMBL document CHEMBL1629685, “Macrolide and clindamycin resistance in Streptococcus milleri group isolates from the airways of cystic fibrosis patients” (2010).

What was measured:
Assay type in all cases: functional
[1] = system: Streptococcus intermedius; test: Antimicrobial activity against Streptococcus intermedius obtained from patient with cystic fibrosis assessed as non-susceptible isolates grown on mueller-Hinton blood agar at 30 ug/ml after 24 hrs at 37 degC by disk diffusion method in presence of 5% defribinated sheep blood
[2] = system: Streptococcus intermedius; test: Antimicrobial activity against invasive Streptococcus intermedius obtained from non-cystic fibrosis patient assessed as non-susceptible isolates grown on brain heart infusion agar at 30 ug/ml after 24 hrs at 37 degC by disk diffusion method
[3] = system: Streptococcus intermedius; test: Antimicrobial activity against invasive Streptococcus intermedius obtained from non-cystic fibrosis patient assessed as non-susceptible isolates grown on mueller-Hinton blood agar at 30 ug/ml after 24 hrs at 37 degC by disk diffusion method in presence of 5% defribinated sheep blood
[4] = system: Streptococcus constellatus; test: Antimicrobial activity against invasive Streptococcus constellatus obtained from non-cystic fibrosis patient assessed as non-susceptible isolates grown on mueller-Hinton blood agar at 30 ug/ml after 24 hrs at 37 degC by disk diffusion method in presence of 5% defribinated sheep blood
Streptococcus anginosus [5] = test: Antimicrobial activity against invasive Streptococcus anginosus obtained from non-cystic fibrosis patient assessed as non-susceptible isolates grown on brain heart infusion agar at 30 ug/ml after 24 hrs at 37 degC by disk diffusion method
[6] = system: Streptococcus intermedius; test: Antimicrobial activity against Streptococcus intermedius obtained from patient with cystic fibrosis assessed as non-susceptible isolates grown on brain heart infusion agar at 30 ug/ml after 24 hrs at 37 degC by disk diffusion method
Streptococcus anginosus [7] = test: Antimicrobial activity against Streptococcus anginosus obtained from patient with cystic fibrosis assessed as non-susceptible isolates grown on mueller-Hinton blood agar at 30 ug/ml after 24 hrs at 37 degC by disk diffusion method in presence of 5% defribinated sheep blood
[8] = system: Streptococcus constellatus; test: Antimicrobial activity against invasive Streptococcus constellatus obtained from non-cystic fibrosis patient assessed as non-susceptible isolates grown on brain heart infusion agar at 30 ug/ml after 24 hrs at 37 degC by disk diffusion method
[9] = system: Streptococcus constellatus; test: Antimicrobial activity against Streptococcus constellatus obtained from patient with cystic fibrosis assessed as non-susceptible isolates grown on mueller-Hinton blood agar at 30 ug/ml after 24 hrs at 37 degC by disk diffusion method in presence of 5% defribinated sheep blood
Streptococcus anginosus [10] = test: Antimicrobial activity against invasive Streptococcus anginosus obtained from non-cystic fibrosis patient assessed as non-susceptible isolates grown on mueller-Hinton blood agar at 30 ug/ml after 24 hrs at 37 degC by disk diffusion method in presence of 5% defribinated sheep blood
[11] = system: Streptococcus constellatus; test: Antimicrobial activity against Streptococcus constellatus obtained from patient with cystic fibrosis assessed as non-susceptible isolates grown on brain heart infusion agar at 30 ug/ml after 24 hrs at 37 degC by disk diffusion method
Streptococcus anginosus [12] = test: Antimicrobial activity against Streptococcus anginosus obtained from patient with cystic fibrosis assessed as non-susceptible isolates grown on brain heart infusion agar at 30 ug/ml after 24 hrs at 37 degC by disk diffusion method
Streptococcus anginosus [13] = test: Antimicrobial activity against Streptococcus anginosus obtained from patient with cystic fibrosis assessed as non-susceptible isolates grown on mueller-Hinton blood agar at 15 ug/ml after 24 hrs at 37 degC by disk diffusion method in presence of 5% defribinated sheep blood
Streptococcus anginosus [14] = test: Antimicrobial activity against invasive Streptococcus anginosus obtained from non-cystic fibrosis patient assessed as non-susceptible isolates grown on brain heart infusion agar at 15 ug/ml after 24 hrs at 37 degC by disk diffusion method
[15] = system: Streptococcus constellatus; test: Antimicrobial activity against Streptococcus constellatus obtained from patient with cystic fibrosis assessed as non-susceptible isolates grown on mueller-Hinton blood agar at 15 ug/ml after 24 hrs at 37 degC by disk diffusion method in presence of 5% defribinated sheep blood
[16] = system: Streptococcus intermedius; test: Antimicrobial activity against invasive Streptococcus intermedius obtained from non-cystic fibrosis patient assessed as non-susceptible isolates grown on mueller-Hinton blood agar at 15 ug/ml after 24 hrs at 37 degC by disk diffusion method in presence of 5% defribinated sheep blood
[17] = system: Streptococcus constellatus; test: Antimicrobial activity against invasive Streptococcus constellatus obtained from non-cystic fibrosis patient assessed as non-susceptible isolates grown on brain heart infusion agar at 15 ug/ml after 24 hrs at 37 degC by disk diffusion method
[18] = system: Streptococcus intermedius; test: Antimicrobial activity against invasive Streptococcus intermedius obtained from non-cystic fibrosis patient assessed as non-susceptible isolates grown on brain heart infusion agar at 15 ug/ml after 24 hrs at 37 degC by disk diffusion method
[19] = system: Streptococcus intermedius; test: Antimicrobial activity against Streptococcus intermedius obtained from patient with cystic fibrosis assessed as non-susceptible isolates grown on mueller-Hinton blood agar at 15 ug/ml after 24 hrs at 37 degC by disk diffusion method in presence of 5% defribinated sheep blood
[20] = system: Streptococcus intermedius; test: Antimicrobial activity against Streptococcus intermedius obtained from patient with cystic fibrosis assessed as non-susceptible isolates grown on brain heart infusion agar at 15 ug/ml after 24 hrs at 37 degC by disk diffusion method
Streptococcus anginosus [21] = test: Antimicrobial activity against Streptococcus anginosus obtained from patient with cystic fibrosis assessed as non-susceptible isolates grown on brain heart infusion agar at 15 ug/ml after 24 hrs at 37 degC by disk diffusion method
[22] = system: Streptococcus constellatus; test: Antimicrobial activity against invasive Streptococcus constellatus obtained from non-cystic fibrosis patient assessed as non-susceptible isolates grown on mueller-Hinton blood agar at 15 ug/ml after 24 hrs at 37 degC by disk diffusion method in presence of 5% defribinated sheep blood
[23] = system: Streptococcus constellatus; test: Antimicrobial activity against Streptococcus constellatus obtained from patient with cystic fibrosis assessed as non-susceptible isolates grown on brain heart infusion agar at 15 ug/ml after 24 hrs at 37 degC by disk diffusion method
Streptococcus anginosus [24] = test: Antimicrobial activity against invasive Streptococcus anginosus obtained from non-cystic fibrosis patient assessed as non-susceptible isolates grown on mueller-Hinton blood agar at 15 ug/ml after 24 hrs at 37 degC by disk diffusion method in presence of 5% defribinated sheep blood
Streptococcus anginosus [25] = test: Antimicrobial activity against invasive Streptococcus anginosus obtained from non-cystic fibrosis patient assessed as non-susceptible isolates grown on brain heart infusion agar at 2 ug/ml after 24 hrs at 37 degC by disk diffusion method; details: at 2 µg/mL
[26] = system: Streptococcus intermedius; test: Antimicrobial activity against Streptococcus intermedius obtained from patient with cystic fibrosis assessed as non-susceptible isolates grown on mueller-Hinton blood agar at 2 ug/ml after 24 hrs at 37 degC by disk diffusion method in presence of 5% defribinated sheep blood
Streptococcus anginosus [27] = test: Antimicrobial activity against Streptococcus anginosus obtained from patient with cystic fibrosis assessed as non-susceptible isolates grown on brain heart infusion agar at 2 ug/ml after 24 hrs at 37 degC by disk diffusion method; details: at 2 µg/mL
[28] = system: Streptococcus intermedius; test: Antimicrobial activity against invasive Streptococcus intermedius obtained from non-cystic fibrosis patient assessed as non-susceptible isolates grown on brain heart infusion agar at 2 ug/ml after 24 hrs at 37 degC by disk diffusion method; details: at 2 µg/mL
[29] = system: Streptococcus constellatus; test: Antimicrobial activity against invasive Streptococcus constellatus obtained from non-cystic fibrosis patient assessed as non-susceptible isolates grown on brain heart infusion agar at 2 ug/ml after 24 hrs at 37 degC by disk diffusion method; details: at 2 µg/mL
Streptococcus anginosus [30] = test: Antimicrobial activity against invasive Streptococcus anginosus obtained from non-cystic fibrosis patient assessed as non-susceptible isolates grown on mueller-Hinton blood agar at 2 ug/ml after 24 hrs at 37 degC by disk diffusion method in presence of 5% defribinated sheep blood
[31] = system: Streptococcus constellatus; test: Antimicrobial activity against Streptococcus constellatus obtained from patient with cystic fibrosis assessed as non-susceptible isolates grown on mueller-Hinton blood agar at 2 ug/ml after 24 hrs at 37 degC by disk diffusion method in presence of 5% defribinated sheep blood
Streptococcus anginosus [32] = test: Antimicrobial activity against Streptococcus anginosus obtained from patient with cystic fibrosis assessed as non-susceptible isolates grown on mueller-Hinton blood agar at 2 ug/ml after 24 hrs at 37 degC by disk diffusion method in presence of 5% defribinated sheep blood
[33] = system: Streptococcus intermedius; test: Antimicrobial activity against Streptococcus intermedius obtained from patient with cystic fibrosis assessed as non-susceptible isolates grown on brain heart infusion agar at 2 ug/ml after 24 hrs at 37 degC by disk diffusion method; details: at 2 µg/mL
[34] = system: Streptococcus constellatus; test: Antimicrobial activity against invasive Streptococcus constellatus obtained from non-cystic fibrosis patient assessed as non-susceptible isolates grown on mueller-Hinton blood agar at 2 ug/ml after 24 hrs at 37 degC by disk diffusion method in presence of 5% defribinated sheep blood
[35] = system: Streptococcus constellatus; test: Antimicrobial activity against Streptococcus constellatus obtained from patient with cystic fibrosis assessed as non-susceptible isolates grown on brain heart infusion agar at 2 ug/ml after 24 hrs at 37 degC by disk diffusion method; details: at 2 µg/mL
[36] = system: Streptococcus intermedius; test: Antimicrobial activity against invasive Streptococcus intermedius obtained from non-cystic fibrosis patient assessed as non-susceptible isolates grown on mueller-Hinton blood agar at 2 ug/ml after 24 hrs at 37 degC by disk diffusion method in presence of 5% defribinated sheep blood

Row | Compound | Activity [1] [%] | Activity [3] [%] | Activity [4] [%] | Activity (Streptococcus anginosus [7]) [%] | Activity [9] [%] | Activity (Streptococcus anginosus [10]) [%] | Activity (Streptococcus anginosus [13]) [%] | Activity (Streptococcus anginosus [14]) [%] | Activity [15] [%] | Activity [16] [%] | Activity [17] [%] | Activity [18] [%] | Activity [19] [%] | Activity [20] [%] | Activity (Streptococcus anginosus [21]) [%] | Activity [22] [%] | Activity [23] [%] | Activity (Streptococcus anginosus [24]) [%] | other results
1 | CO/N=C(\C(=O)N[C@@H]1C(=O)N2C(C(=O)[O-])=C(C[N+]3(C)CCCC3)CS[C@H]12)c1csc(N)n1 | 0 | 0 | 0 | 2.5 | 0 | 0 |  |  |  |  |  |  |  |  |  |  |  |  | Activity [2]: 0%; Activity (Streptococcus anginosus [5]): 0%; Activity [6]: 3.1%; Activity [8]: 0%; Activity [11]: 0%; Activity (Streptococcus anginosus [12]): 0%
2 | CC[C@H]1OC(=O)[C@H](C)[C@@H](O[C@H]2C[C@@](C)(OC)[C@@H](O)[C@H](C)O2)[C@H](C)[C@@H](O[C@@H]2O[C@H](C)C[C@H](N(C)C)[C@H]2O)[C@](C)(O)C[C@@H](C)CN(C)[C@H](C)[C@@H](O)[C@]1(C)O [AZITHROMYCIN] |  |  |  |  |  |  | 60 | 0 | 20 | 28.6 | 7.7 | 16.7 | 50 | 34.4 | 56.5 | 0 | 65 | 11.1 | 
3 | CO/N=C(\C(=O)N[C@@H]1C(=O)N2C(C(=O)O)=C(CSc3nc(=O)c(O)nn3C)CS[C@H]12)c1csc(N)n1 [CEFTRIAXONE] | 0 | 0 | 0 | 0 | 0 | 0 |  |  |  |  |  |  |  |  |  |  |  |  | 
4 | CCC[C@@H]1C[C@@H](C(=O)N[C@@H]([C@H]2O[C@H](SC)[C@H](O)[C@@H](O)[C@H]2O)[C@H](C)Cl)N(C)C1 [CLINDAMYCIN] |  |  |  |  |  |  |  |  |  |  |  |  |  |  |  |  |  |  | Activity (Streptococcus anginosus [25]): 0%; Activity [26]: 50%; Activity (Streptococcus anginosus [27]): 56.5%; Activity [28]: 12.5%; Activity [29]: 0%; Activity (Streptococcus anginosus [30]): 0%; Activity [31]: 20%; Activity (Streptococcus anginosus [32]): 52.5%; Activity [33]: 28.1%; Activity [34]: 0%; Activity [35]: 62.5%; Activity [36]: 28.6%
5 | CC[C@H]1OC(=O)[C@H](C)[C@@H](O[C@H]2C[C@@](C)(OC)[C@@H](O)[C@H](C)O2)[C@H](C)[C@@H](O[C@@H]2O[C@H](C)C[C@H](N(C)C)[C@H]2O)[C@](C)(O)C[C@@H](C)C(=O)[C@H](C)[C@@H](O)[C@]1(C)O [ERYTHROMYCIN] |  |  |  |  |  |  | 57.5 | 11.1 | 20 | 28.6 | 7.7 | 16.7 | 50 | 34.4 | 52.2 | 0 | 65 | 11.1 | 
6 | CN(C)[C@@H]1C(O)=C(C(N)=O)C(=O)[C@@]2(O)C(O)=C3C(=O)c4c(O)cccc4[C@@](C)(O)[C@H]3C[C@@H]12 [TETRACYCLINE] | 0 | 0 | 33.3 | 27.5 | 0 |  |  |  |  |  |  |  |  |  |  |  |  |  | 
